In EP4745138A1, “THIO-GLUTARIMIDO ISOINDOLINONE DERIVATIVE, BIFUNCTIONAL PROTEIN DEGRADER CONTAINING SAME, AND USES THEREOF” (Gluetacs Therapeutics (Shanghai) Co., Ltd., priority 2023, dated 2025):
Read-outs that look alike come from different tables or passages of the source.

Assays:
[1] = tested on: HCC827; test: Tumor cell proliferation inhibition (CellTiter-Meiluncell Luminescent Cell Viability Assay); conditions: Homo sapiens, 96 hours, Table I-1, designed based on the ALK inhibitors, read-out: Inhibitory activity (IC50, nM) HCC827
Procedure: (§1) The tumor cells used herein were cultured in a cell culture medium listed in table 3 at 37°C in an incubator with 5% CO2. Prior to experimentation, all cell lines used were correctly identified by STR profiling, and tested negative for mycoplasma contamination using a mycoplasma detection kit through routine screenings. Table 3. Tumor cells and cell culture medium used in the present disclosure
(§2) The IC50 values of the compounds of the present disclosure (including the compounds in Table 1, Table 2, and Examples) were determined using the CellTiter-Meiluncell Luminescent Cell Viability Assay Kit from Dalian Meilun Biotech Co., Ltd. The detailed procedure is as follows: Tumor cells were seeded in 96-well cell culture plates at the densities specified in Table 4. On the following day, the test compounds of the present disclosure were subjected to serial dilution. […] Subsequently, 0.5 µL of the test compound dilution was transferred into the 96-well plate containing the cells, with each well containing 100 µL of cell culture medium. […] Into the 96-well plate, the diluted test compounds and corresponding detection reagents were added, resulting in final test compound concentrations of 500 nM and 10 nM, respectively. The experimental procedure is described below using the diluted 2 µM test compound as an example.
(§3) 0.5 µL of the aforementioned diluted compound of the present disclosure (including the compounds in Table 1, Table 2, and Examples) was added to the seeded cells in 100 µL of medium, yielding a final test compound concentration of 10 nM. After the cells were treated with the compounds of the present disclosure for a specified period, the cell viability assay reagent was added to the culture medium according to the kit's instructions to determine cell viability. […] All controls were treated using the same procedure as the compounds of the present disclosure. […] Seeding protocol and treatment time for tumor cells

[2] = tested on: SR; test: as above; conditions: Homo sapiens, 96 hours, Table I-1, designed based on the ALK inhibitors, read-out: Inhibitory activity (IC50, nM) SR
Procedure: as §1, §2, §3

[3] = biological target: T1, ALK (Homo sapiens, UniProt Q96SW2+Q9HC35+Q9UM73); test: Western blot, target protein degradation in H2228 Cell; type: cell-based; conditions: substrate protein remaining %, treated at 500 nM and 50 nM, 24 hours
T1 construct: endogenous in cells; host or cells: H2228
T1 sequence (Q9HC35+Q9UM73 fused): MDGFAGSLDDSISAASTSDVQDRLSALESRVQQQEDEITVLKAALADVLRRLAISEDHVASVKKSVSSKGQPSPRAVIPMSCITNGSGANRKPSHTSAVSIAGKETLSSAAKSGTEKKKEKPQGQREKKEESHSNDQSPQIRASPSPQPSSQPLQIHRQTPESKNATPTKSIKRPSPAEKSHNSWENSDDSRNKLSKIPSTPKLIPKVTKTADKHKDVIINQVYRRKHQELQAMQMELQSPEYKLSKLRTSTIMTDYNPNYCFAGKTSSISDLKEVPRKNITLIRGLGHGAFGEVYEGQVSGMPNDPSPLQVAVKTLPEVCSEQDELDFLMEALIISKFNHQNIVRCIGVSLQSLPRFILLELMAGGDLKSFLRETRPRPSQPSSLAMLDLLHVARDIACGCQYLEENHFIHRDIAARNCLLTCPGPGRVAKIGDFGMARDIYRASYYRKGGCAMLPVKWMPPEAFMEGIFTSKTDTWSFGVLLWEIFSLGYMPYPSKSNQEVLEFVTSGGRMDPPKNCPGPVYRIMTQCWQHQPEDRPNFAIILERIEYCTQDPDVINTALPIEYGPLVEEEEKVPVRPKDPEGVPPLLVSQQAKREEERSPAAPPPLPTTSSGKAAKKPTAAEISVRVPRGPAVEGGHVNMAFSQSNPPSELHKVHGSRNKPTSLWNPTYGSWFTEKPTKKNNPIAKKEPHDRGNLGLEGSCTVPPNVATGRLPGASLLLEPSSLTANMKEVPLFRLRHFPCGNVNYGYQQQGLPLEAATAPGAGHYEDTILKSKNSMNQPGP
T1 sequence (Q96SW2 whole entry): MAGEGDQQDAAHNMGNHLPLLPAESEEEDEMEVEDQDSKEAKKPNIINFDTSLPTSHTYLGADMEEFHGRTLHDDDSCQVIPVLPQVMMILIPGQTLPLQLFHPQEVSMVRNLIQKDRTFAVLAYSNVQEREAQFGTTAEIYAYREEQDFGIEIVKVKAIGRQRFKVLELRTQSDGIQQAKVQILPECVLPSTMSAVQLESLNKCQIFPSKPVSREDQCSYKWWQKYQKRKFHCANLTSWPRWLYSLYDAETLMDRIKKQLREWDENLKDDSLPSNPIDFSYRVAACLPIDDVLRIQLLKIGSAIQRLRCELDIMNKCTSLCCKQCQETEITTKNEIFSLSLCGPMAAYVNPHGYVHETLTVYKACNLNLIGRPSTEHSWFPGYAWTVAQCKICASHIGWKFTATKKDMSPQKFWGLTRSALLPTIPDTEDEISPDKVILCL
T1 sequence (Q16531 whole entry partner): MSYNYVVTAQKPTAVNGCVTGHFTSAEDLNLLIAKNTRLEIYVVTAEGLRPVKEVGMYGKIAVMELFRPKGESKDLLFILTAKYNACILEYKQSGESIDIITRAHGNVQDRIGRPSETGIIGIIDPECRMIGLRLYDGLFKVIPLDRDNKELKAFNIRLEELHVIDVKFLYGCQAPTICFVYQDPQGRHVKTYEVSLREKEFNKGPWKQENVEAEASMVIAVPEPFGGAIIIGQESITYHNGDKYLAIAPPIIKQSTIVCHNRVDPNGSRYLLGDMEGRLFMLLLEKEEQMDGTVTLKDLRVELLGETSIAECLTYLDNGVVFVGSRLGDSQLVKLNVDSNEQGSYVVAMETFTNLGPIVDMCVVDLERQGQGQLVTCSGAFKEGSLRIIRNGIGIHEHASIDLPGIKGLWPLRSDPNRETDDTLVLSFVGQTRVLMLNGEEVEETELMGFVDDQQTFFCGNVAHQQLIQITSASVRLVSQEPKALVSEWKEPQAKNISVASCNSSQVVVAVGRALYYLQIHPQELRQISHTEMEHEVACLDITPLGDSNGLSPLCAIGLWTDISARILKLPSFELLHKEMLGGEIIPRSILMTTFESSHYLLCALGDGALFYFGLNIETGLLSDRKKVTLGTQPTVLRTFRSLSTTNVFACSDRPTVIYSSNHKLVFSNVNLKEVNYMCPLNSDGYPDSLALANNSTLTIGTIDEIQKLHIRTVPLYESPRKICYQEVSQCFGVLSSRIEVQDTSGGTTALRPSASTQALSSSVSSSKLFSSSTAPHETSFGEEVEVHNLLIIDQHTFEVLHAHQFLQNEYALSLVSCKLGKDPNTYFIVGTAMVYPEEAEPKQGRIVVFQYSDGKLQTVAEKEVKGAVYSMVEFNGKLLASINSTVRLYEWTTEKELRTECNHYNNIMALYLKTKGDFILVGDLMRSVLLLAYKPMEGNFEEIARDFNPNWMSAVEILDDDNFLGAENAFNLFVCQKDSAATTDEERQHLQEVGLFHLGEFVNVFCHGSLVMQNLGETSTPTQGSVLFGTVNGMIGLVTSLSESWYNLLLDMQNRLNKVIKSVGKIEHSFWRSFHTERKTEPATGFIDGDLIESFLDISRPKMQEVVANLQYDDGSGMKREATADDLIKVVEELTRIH
How it was run: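 First, treated cells are harvested and the lysate supernatant denatured (95°C, 5 min). Next, proteins are separated by SDS-PAGE, blotted onto nitrocellulose and probed with antibodies. Finally, band grayscale normalized to an internal control protein yields percent target remaining relative to DMSO.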

[4] = biological target: T2, human Cereblon WT GST-tagged protein (Homo sapiens, UniProt Q96SW2); test: CRBN-binding affinity, HTRF (CEREBLON BINDING kit); conditions: for inhibition at 0.5 µM: read-out: Inhibition Rate at 0.5 µM (%); for inhibition at 2 µM: read-out: Inhibition Rate at 2 µM (%)
T2 construct: purchased CISBIO 64BDCRBNPEH
T2 sequence (Q96SW2 whole entry): as the sequence (Q96SW2 whole entry) above
How it was run: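 Compounds are serially diluted in diluent #9 (1X) and added at final 2 µM and 0.5 µM. GST-tagged wild-type Cereblon is added next, followed by premixed thalidomide-red reagent and anti-GST Eu antibody, and HTRF signal is measured.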

[5] = tested on: MM.1S; test: Tumor cell proliferation inhibition (CellTiter-Meiluncell Luminescent Cell Viability Assay); type: cell-based; conditions: Homo sapiens, MM1.S, MM.1S, 96 hours; for inhibition at 0.01 µM: 10 nM, read-out: Inhibition Rate at 10 nM (%); for inhibition at 0.5 µM: 500 nM, read-out: Inhibition Rate at 500 nM (%)
How it was run: (§4)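 Following overnight seeding, tumor cells received serial compound dilutions to final levels that included 10 nM and 500 nM. Viability was assessed by luminescence at the end of the specified exposure time. Cultures were kept at 37°C with 5% CO2.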

[6] = tested on: SW620; test: as above; type: cell-based; conditions: Homo sapiens, 96 hours, Table I-6, IRAK4 inhibitors
How it was run: as §4

[7] = tested on: JEKO-1; test: as above; type: cell-based; conditions: Homo sapiens, 96 hours, Table I-6, IRAK4 inhibitors
How it was run: as §4

[8] = tested on: MV-4-11; test: as above; type: cell-based; conditions: Homo sapiens, 96 hours; for inhibition at 0.01 µM: MV4-11, 10 nM, read-out: Inhibition Rate at 10 nM (%); for inhibition at 0.5 µM: MV4-11, 500 nM, read-out: Inhibition Rate at 500 nM (%)
How it was run: as §4

[9] = biological target: T3, IRAK4 (Homo sapiens, UniProt Q9NWZ3); test: Western blot, target protein degradation in hPBMC Cell; type: cell-based; conditions: substrate protein remaining %, treated at 50 nM and 500 nM, 24 hours
T3 construct: endogenous in cells; host or cells: hPBMC
T3 sequence (Q9NWZ3 whole entry): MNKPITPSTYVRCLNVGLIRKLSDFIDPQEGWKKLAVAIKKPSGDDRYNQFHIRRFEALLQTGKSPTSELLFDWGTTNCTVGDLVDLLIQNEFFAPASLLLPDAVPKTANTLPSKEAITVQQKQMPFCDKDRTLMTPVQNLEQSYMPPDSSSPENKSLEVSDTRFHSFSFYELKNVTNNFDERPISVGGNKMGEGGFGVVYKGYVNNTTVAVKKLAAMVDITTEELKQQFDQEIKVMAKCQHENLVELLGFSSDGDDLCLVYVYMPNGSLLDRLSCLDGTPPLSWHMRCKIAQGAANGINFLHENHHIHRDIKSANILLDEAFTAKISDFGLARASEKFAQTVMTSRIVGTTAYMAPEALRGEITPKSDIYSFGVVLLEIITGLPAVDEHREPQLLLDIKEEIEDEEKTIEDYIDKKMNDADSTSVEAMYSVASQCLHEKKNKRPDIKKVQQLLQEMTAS
Procedure: (§5) Conventional Western blot assay was performed to evaluate the effects of the compounds of the present disclosure on the expression of target proteins in cells.
(§6) (1) Cell Seeding and Protein Harvesting: The selected cells were processed according to the cell seeding procedure and protein harvesting procedure in Table II-2. Table II-2 Cell Seeding and Protein Harvesting Procedures
(§7) (2) To the collected supernatant, 5X SDS sample loading buffer was added, followed by denaturation at 95°C for 5 minutes. The denatured samples were then separated by SDS-PAGE electrophoresis on a polyacrylamide gel. Proteins were transferred to a nitrocellulose membrane (0.45 µm NC membrane), blocked with blocking buffer at room temperature for 1 hour, and subjected to antibody incubation and development procedures according to the antibody manufacturer's instructions (Cell Signaling Technology).
(§8) Half-Maximal Degradation Concentration value (the drug concentration required for degrading proteins by 50%, abbreviated as DC50) reads method: comparing the grayscale values of Western blot bands from drug-treated samples with those from blank DMSO-treated controls, and identifying the drug concentration range at which the grayscale value is half that of the DMSO-treated control bands.
(§9) DC50 values can be calculated using ImageJ software to measure grayscale values of Western blot bands from drug-treated samples. The concentration-response curve is fitted to estimate the drug concentration corresponding to half the grayscale value.
(§10) Target protein remaining (%) refers to the percentage of target protein remaining in cells after treatment with protein degrader compounds.
(§11) Calculation method for target protein remaining (%): Use ImageJ software to measure grayscale values of Western blot bands from drug (protein degrader)-treated samples. The grayscale value of drug-treated bands is divided by that of internal control protein bands, and the resulting quotient is normalized to obtain the relative percentage of remaining target protein after protein degrader treatment. Target protein degradation rate(%) = 1−target protein remaining(%). [formula]

[10] = biological target: T4, CDK2 (Homo sapiens, UniProt P24941); test: as above; type: cell-based; conditions: treated at 50 nM and 500 nM, 24 hours
T4 construct: the expression of target proteins in cells; endogenous in cells; host or cells: hPBMC
Procedure: as §5, §6, §7, §8, §9, §10, §11

[11] = tested on: MCF-7; test: Tumor cell proliferation inhibition (CellTiter-Meiluncell Luminescent Cell Viability Assay); type: cell-based; conditions: Homo sapiens, 96 hours, Table I-2, ALK inhibitors
How it was run: as §4

[12] = tested on: CFPAC-1; test: as above; type: cell-based; conditions: Homo sapiens, 96 hours, Table I-2, ALK inhibitors
How it was run: as §4

[13] = tested on: A375; test: as above; type: cell-based; conditions: Homo sapiens, 96 hours, Table I-2, ALK inhibitors
How it was run: as §4

[14] = 10 nM, read-out: Inhibition Rate at 10 nM (%)
[15] = 500 nM, read-out: Inhibition Rate at 500 nM (%)

CCc1cc2c(cc1N1CCC(N3CCN(Cc4ccc5c(c4)C(=S)N(C4CCC(=O)NC4=O)C5)CC3)CC1)C(C)(C)c1[nH]c3cc(C#N)ccc3c1C2=O (centres unmarked) [GT-05030, 8-(4-(4-((2-(2,6-dioxopiperidin-3-yl)-3-thioxoisoindolin-5-yl)methyl)piperazin-1-yl)piperidin-1-yl)-9-ethyl-6,6-dimethyl-11-oxo-6,11-dihydro-5H-benzo[b]carbazole-3-carbonitrile]
IC50 [1]: 500 to 1000 nM
IC50 [2]: 10 to 20 nM
Degradation of substrate protein ALK [3]: A (0% ≤ substrate protein remaining % ≤ 80%)
inhibition at 0.5 µM [4]: 60 to 80%
inhibition at 2 µM [4]: 60 to 80%

O=C1CCC(N2Cc3cc(CN4CCC(n5cc(NC(=O)c6coc(-c7ccnc(NCC(F)(F)F)c7)n6)c(C(F)F)n5)CC4)ccc3C2=S)C(=O)N1 (centres unmarked) [GT-05292, N-(3-(difluoromethyl)-1-(1-((2-(2,6-dioxopiperidin-3-yl)-1-thioxoisoindolin-5-yl)methyl)piperidin-4-yl)-1H-pyrazol-4-yl)-2-(2-((2,2,2-trifluoroethyl)amino)pyridin-4-yl)oxazole-4-carboxamide]
inhibition at 0.01 µM ([5]; Table I-6, IRAK4 inhibitors): 50 to 60%
inhibition at 0.5 µM ([5]; Table I-6, IRAK4 inhibitors): 80 to 100%
inhibition at 0.01 µM ([6]; SW-620, 10 nM, read-out: Inhibition Rate at 10 nM (%)): 70 to 80%
inhibition at 0.5 µM ([6]; SW-620, 500 nM, read-out: Inhibition Rate at 500 nM (%)): 80 to 100%
inhibition at 0.01 µM [7, 14]: 30 to 40%
inhibition at 0.5 µM [7, 15]: 80 to 100%
inhibition at 0.01 µM ([8]; Table I-6, IRAK4 inhibitors): 80 to 100%
inhibition at 0.5 µM ([8]; Table I-6, IRAK4 inhibitors): 80 to 100%
inhibition at 0.5 µM [4]: 20 to 30%
inhibition at 2 µM [4]: 60 to 80%
Degradation of substrate protein IRAK4 [9]: A (0% ≤ substrate protein remaining % ≤ 80%)

CC(C)(O)c1cc2nn(C3CCN(Cc4ccc5c(c4)CN(C4CCC(=O)NC4=O)C5=S)CC3)cc2cc1NC(=O)c1cccc(C(F)(F)F)n1 (centres unmarked) [GT-05297, N-(2-(1-((2-(2,6-dioxopiperidin-3-yl)-1-thioxoisoindolin-5-yl)methyl)piperidin-4-yl)-6-(2-hydroxypropan-2-yl)-2H-indazol-5-yl)-6-(trifluoromethyl)picolinamide]
inhibition at 0.5 µM [4]: 60 to 80%
inhibition at 2 µM [4]: 80 to 100%
Degradation of substrate protein IRAK4 [9]: A (0% ≤ substrate protein remaining % ≤ 80%)

Cc1ccsc1C(=O)n1nc(Nc2ccc(S(=O)(=O)N3CCN(Cc4ccc5c(c4)CN(C4CCC(=O)NC4=O)C5=S)CC3)cc2)nc1N (centres unmarked) [GT-08792, 3-(5-((4-((4-((5-amino-1-(3-methylthiophene-2-carbonyl)-1H-1,2,4-triazol-3-yl)amino)phenyl)sulfony 1)piperazin-1-yl)methyl)-1-thioxoisoindolin-2-yl)piperidine-2,6-dione]
inhibition at 0.01 µM ([5]; Table I-13, CDK2 inhibitors): 10 to 20%
inhibition at 0.5 µM ([5]; Table I-13, CDK2 inhibitors): 60 to 70%
inhibition at 0.01 µM ([8]; Table I-13, CDK2 inhibitors): 0 to 5%
inhibition at 0.5 µM ([8]; Table I-13, CDK2 inhibitors): 50 to 60%
inhibition at 0.5 µM [4]: 60 to 80%
inhibition at 2 µM [4]: 60 to 80%
Degradation of substrate protein CDK2 [10]: Yes

C[C@H]1Oc2cc(cnc2N)-c2c(nn(C)c2C#N)CN(C)C(=O)c2ccc(F)cc21 [lorlatinib, reference compound]
inhibition at 0.01 µM ([11]; MCF7, 10 nM, read-out: Inhibition Rate at 10 nM (%)): 10 to 20%
inhibition at 0.5 µM ([11]; MCF7, 500 nM, read-out: Inhibition Rate at 500 nM (%)): 20 to 30%
inhibition at 0.01 µM ([5]; Table I-2, ALK inhibitors): -5 to 0%
inhibition at 0.5 µM ([5]; Table I-2, ALK inhibitors): -20 to -10%
inhibition at 0.01 µM [12, 14]: 10 to 20%
inhibition at 0.5 µM [12, 15]: 20 to 30%
inhibition at 0.01 µM ([13]; A-375, 10 nM, read-out: Inhibition Rate at 10 nM (%)): 10 to 20%
inhibition at 0.5 µM ([13]; A-375, 500 nM, read-out: Inhibition Rate at 500 nM (%)): 10 to 20%
inhibition at 0.01 µM ([8]; Table I-2, ALK inhibitors): -20 to -10%
inhibition at 0.5 µM ([8]; Table I-2, ALK inhibitors): -5 to 0%
IC50 [1]: > 10000 nM
IC50 [2]: > 10000 nM
